Experimental data as given in ChEMBL document CHEMBL4507262, “Data for DCP probe A-1596586” (2021).

Columns and labels:
[1] = target: Serine/threonine-protein kinase STK11 (Homo sapiens) (UniProt Q15831); settings: Compound concentration 1000.0 nM
[2] = target: Mitogen-activated protein kinase kinase kinase 2 (Homo sapiens) (UniProt Q9Y2U5); settings: Compound concentration 1000.0 nM
[3] = target: Phosphorylase b kinase gamma catalytic chain, skeletal muscle/heart isoform (Homo sapiens) (UniProt Q16816); settings: Compound concentration 1000.0 nM
[4] = target: Histamine H2 receptor (Homo sapiens) (UniProt P25021); assay: H2 (h) Eurofins-Cerep binding assay; set-up: ligand concentration 0.075 nM; settings: filed as antagonist, Compound concentration 10.0 uM
[5] = target: Phosphatidylinositol 4,5-bisphosphate 3-kinase catalytic subunit delta isoform (Homo sapiens) (UniProt O00329); settings: Compound concentration 1000.0 nM
[6] = target: LIM domain kinase 1 (Homo sapiens) (UniProt P53667); settings: Compound concentration 1000.0 nM
[7] = target: Serine/threonine-protein kinase ULK3 (Homo sapiens) (UniProt Q6PHR2); settings: Compound concentration 1000.0 nM
[8] = target: Cyclin-dependent kinase-like 2 (Homo sapiens) (UniProt Q92772); settings: Compound concentration 1000.0 nM
[9] = target: Phosphorylase b kinase regulatory subunit alpha, liver isoform (Homo sapiens) (UniProt P46019); settings: Compound concentration 1000.0 nM
[10] = target: NUAK family SNF1-like kinase 1 (Homo sapiens) (UniProt O60285); settings: Compound concentration 1000.0 nM
[11] = tested on: Phosphatidylinositol 4,5-bisphosphate 3-kinase catalytic subunit alpha isoform (Homo sapiens), P42336 [H1047Y]; settings: Compound concentration 1000.0 nM
[12] = target: Calcium/calmodulin-dependent protein kinase type 1G (Homo sapiens) (UniProt Q96NX5); settings: Compound concentration 1000.0 nM
[13] = target: Mitogen-activated protein kinase 12 (Homo sapiens) (UniProt P53778); settings: Compound concentration 1000.0 nM
[14] = target: Tyrosine-protein kinase ABL1 (Homo sapiens) (UniProt P00519); settings: Compound concentration 1000.0 nM
[15] = target: Dual specificity protein kinase CLK4 (Homo sapiens) (UniProt Q9HAZ1); settings: Compound concentration 1000.0 nM
[16] = tested on: Receptor-type tyrosine-protein kinase FLT3 (Homo sapiens), P36888 [K663Q]; settings: Compound concentration 1000.0 nM
[17] = target: Tyrosine-protein kinase ZAP-70 (Homo sapiens) (UniProt P43403); settings: Compound concentration 1000.0 nM
[18] = target: Prostaglandin E2 receptor EP2 subtype (Homo sapiens) (UniProt P43116); assay: EP2 (h) Eurofins-Cerep binding assay; set-up: ligand concentration 3 nM; settings: filed as agonist, Compound concentration 10.0 uM
[19] = tested on: Fibroblast growth factor receptor 3 (Homo sapiens), P22607 [G697C]; settings: Compound concentration 1000.0 nM
[20] = target: Bone morphogenetic protein receptor type-2 (Homo sapiens) (UniProt Q13873); settings: Compound concentration 1000.0 nM
[21] = target: Beta-3 adrenergic receptor (Homo sapiens) (UniProt P13945); settings: Compound concentration 10.0 uM
[22] = target: Calcium/calmodulin-dependent protein kinase type II subunit alpha (Homo sapiens) (UniProt Q9UQM7); settings: Compound concentration 1000.0 nM
[23] = target: Histamine H1 receptor (Homo sapiens) (UniProt P35367); assay: H1 (h) Eurofins-Cerep binding assay; set-up: ligand concentration 1 nM; settings: filed as antagonist, Compound concentration 10.0 uM
[24] = target: Tyrosine-protein kinase Fyn (Homo sapiens) (UniProt P06241); settings: Compound concentration 1000.0 nM
[25] = target: Epidermal growth factor receptor (Homo sapiens) (UniProt P00533); settings: Compound concentration 1000.0 nM
[26] = target: Serine/threonine-protein kinase ULK1 (Homo sapiens) (UniProt O75385); settings: Compound concentration 1000.0 nM
[27] = target: RAC-beta serine/threonine-protein kinase (Homo sapiens) (UniProt P31751); settings: Compound concentration 1000.0 nM
[28] = target: Ephrin type-B receptor 2 (Homo sapiens) (UniProt P29323); settings: Compound concentration 1000.0 nM
[29] = target: cGMP-dependent protein kinase 1 (Homo sapiens) (UniProt Q13976); settings: Compound concentration 1000.0 nM
[30] = target: Serine/threonine-protein kinase PRP4 homolog (Homo sapiens) (UniProt Q13523); settings: Compound concentration 1000.0 nM
[31] = target: Non-receptor tyrosine-protein kinase TYK2 (Homo sapiens) (UniProt P29597); settings: Compound concentration 1000.0 nM
[32] = target: Kappa-type opioid receptor (Homo sapiens) (UniProt P41145); settings: Compound concentration 10.0 uM
[33] = target: Proto-oncogene tyrosine-protein kinase ROS (Homo sapiens) (UniProt P08922); settings: Compound concentration 1000.0 nM
[34] = target: Myosin light chain kinase, smooth muscle (Homo sapiens) (UniProt Q15746); settings: Compound concentration 1000.0 nM
[35] = target: Serine/threonine-protein kinase MRCK gamma (Homo sapiens) (UniProt Q6DT37); settings: Compound concentration 1000.0 nM
[36] = target: Leukocyte tyrosine kinase receptor (Homo sapiens) (UniProt P29376); settings: Compound concentration 1000.0 nM
[37] = target: Serine/threonine-protein kinase MAK (Homo sapiens) (UniProt P20794); settings: Compound concentration 1000.0 nM
[38] = tested on: Tyrosine-protein kinase ABL1 (Homo sapiens), P00519 [E255K]; settings: Compound concentration 1000.0 nM
[39] = target: cGMP-inhibited 3',5'-cyclic phosphodiesterase 3A (Homo sapiens) (UniProt Q14432); assay: PDE3A (h) Eurofins-Cerep enzyme and uptake assay; settings: Compound concentration 10.0 uM
[40] = target: Serine/threonine-protein kinase SIK3 (Homo sapiens) (UniProt Q9Y2K2); settings: Compound concentration 1000.0 nM
[41] = target: Ribosomal protein S6 kinase alpha-4 (Homo sapiens) (UniProt O75676); settings: Compound concentration 1000.0 nM
[42] = target: Beta-adrenergic receptor kinase 1 (Homo sapiens) (UniProt P25098); settings: Compound concentration 1000.0 nM
[43] = target: Phosphatidylinositol 4-phosphate 5-kinase type-1 alpha (Homo sapiens) (UniProt Q99755); settings: Compound concentration 1000.0 nM
[44] = target: Urotensin-2 receptor (Homo sapiens) (UniProt Q9UKP6); assay: UT (h) Eurofins-Cerep binding assay; set-up: ligand concentration 0.1 nM; settings: filed as agonist, Compound concentration 10.0 uM
[45] = target: Serine/threonine-protein kinase 16 (Homo sapiens) (UniProt O75716); settings: Compound concentration 1000.0 nM

Chain of Serine/threonine-protein kinase MAK (Homo sapiens) (P20794 whole entry): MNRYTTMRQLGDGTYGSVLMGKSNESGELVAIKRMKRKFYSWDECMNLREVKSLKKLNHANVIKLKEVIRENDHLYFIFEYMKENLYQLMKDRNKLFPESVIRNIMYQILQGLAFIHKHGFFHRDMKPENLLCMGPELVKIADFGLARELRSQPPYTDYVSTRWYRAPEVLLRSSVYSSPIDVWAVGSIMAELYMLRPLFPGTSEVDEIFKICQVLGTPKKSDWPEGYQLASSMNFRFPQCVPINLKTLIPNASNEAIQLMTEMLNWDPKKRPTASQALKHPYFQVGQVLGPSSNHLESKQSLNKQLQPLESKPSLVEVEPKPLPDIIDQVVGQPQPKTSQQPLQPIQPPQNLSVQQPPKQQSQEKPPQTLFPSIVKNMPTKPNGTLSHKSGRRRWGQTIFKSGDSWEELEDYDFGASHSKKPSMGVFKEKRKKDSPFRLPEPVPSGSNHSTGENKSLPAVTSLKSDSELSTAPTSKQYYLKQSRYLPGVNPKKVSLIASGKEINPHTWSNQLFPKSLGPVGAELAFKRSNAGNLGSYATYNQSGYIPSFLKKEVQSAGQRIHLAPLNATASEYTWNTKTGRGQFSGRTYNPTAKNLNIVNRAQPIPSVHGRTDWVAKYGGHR
Chain of Beta-3 adrenergic receptor (Homo sapiens) (P13945 whole entry, looked up): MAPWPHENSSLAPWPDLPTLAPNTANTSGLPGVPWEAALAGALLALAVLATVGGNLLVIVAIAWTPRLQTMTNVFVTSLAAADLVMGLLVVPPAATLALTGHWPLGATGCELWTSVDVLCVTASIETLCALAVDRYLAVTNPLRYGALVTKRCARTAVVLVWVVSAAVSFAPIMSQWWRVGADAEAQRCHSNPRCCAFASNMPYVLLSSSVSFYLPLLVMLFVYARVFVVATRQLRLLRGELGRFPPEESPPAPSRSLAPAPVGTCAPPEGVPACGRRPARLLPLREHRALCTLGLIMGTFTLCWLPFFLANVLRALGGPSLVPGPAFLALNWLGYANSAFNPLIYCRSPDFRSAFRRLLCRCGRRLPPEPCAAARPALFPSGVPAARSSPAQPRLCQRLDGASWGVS
Chain of cGMP-dependent protein kinase 1 (Homo sapiens) (Q13976 whole entry): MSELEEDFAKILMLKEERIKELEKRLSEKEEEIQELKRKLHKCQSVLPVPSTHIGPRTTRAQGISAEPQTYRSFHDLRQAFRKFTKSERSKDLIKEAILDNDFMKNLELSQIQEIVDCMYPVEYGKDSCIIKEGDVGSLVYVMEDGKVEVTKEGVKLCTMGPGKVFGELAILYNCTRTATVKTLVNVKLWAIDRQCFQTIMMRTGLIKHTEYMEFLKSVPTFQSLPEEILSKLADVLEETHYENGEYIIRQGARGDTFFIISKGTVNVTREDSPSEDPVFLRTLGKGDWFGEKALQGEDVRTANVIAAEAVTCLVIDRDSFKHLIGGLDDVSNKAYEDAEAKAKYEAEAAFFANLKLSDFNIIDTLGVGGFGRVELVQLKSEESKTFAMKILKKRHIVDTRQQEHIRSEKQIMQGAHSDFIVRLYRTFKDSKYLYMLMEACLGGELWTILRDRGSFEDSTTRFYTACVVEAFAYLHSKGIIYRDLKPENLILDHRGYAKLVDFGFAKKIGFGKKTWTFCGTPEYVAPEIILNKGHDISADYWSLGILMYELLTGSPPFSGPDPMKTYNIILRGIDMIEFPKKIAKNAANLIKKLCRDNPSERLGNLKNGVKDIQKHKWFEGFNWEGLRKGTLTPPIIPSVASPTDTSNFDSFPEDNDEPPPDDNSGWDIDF
Chain of Myosin light chain kinase, smooth muscle (Homo sapiens) (Q15746 whole entry): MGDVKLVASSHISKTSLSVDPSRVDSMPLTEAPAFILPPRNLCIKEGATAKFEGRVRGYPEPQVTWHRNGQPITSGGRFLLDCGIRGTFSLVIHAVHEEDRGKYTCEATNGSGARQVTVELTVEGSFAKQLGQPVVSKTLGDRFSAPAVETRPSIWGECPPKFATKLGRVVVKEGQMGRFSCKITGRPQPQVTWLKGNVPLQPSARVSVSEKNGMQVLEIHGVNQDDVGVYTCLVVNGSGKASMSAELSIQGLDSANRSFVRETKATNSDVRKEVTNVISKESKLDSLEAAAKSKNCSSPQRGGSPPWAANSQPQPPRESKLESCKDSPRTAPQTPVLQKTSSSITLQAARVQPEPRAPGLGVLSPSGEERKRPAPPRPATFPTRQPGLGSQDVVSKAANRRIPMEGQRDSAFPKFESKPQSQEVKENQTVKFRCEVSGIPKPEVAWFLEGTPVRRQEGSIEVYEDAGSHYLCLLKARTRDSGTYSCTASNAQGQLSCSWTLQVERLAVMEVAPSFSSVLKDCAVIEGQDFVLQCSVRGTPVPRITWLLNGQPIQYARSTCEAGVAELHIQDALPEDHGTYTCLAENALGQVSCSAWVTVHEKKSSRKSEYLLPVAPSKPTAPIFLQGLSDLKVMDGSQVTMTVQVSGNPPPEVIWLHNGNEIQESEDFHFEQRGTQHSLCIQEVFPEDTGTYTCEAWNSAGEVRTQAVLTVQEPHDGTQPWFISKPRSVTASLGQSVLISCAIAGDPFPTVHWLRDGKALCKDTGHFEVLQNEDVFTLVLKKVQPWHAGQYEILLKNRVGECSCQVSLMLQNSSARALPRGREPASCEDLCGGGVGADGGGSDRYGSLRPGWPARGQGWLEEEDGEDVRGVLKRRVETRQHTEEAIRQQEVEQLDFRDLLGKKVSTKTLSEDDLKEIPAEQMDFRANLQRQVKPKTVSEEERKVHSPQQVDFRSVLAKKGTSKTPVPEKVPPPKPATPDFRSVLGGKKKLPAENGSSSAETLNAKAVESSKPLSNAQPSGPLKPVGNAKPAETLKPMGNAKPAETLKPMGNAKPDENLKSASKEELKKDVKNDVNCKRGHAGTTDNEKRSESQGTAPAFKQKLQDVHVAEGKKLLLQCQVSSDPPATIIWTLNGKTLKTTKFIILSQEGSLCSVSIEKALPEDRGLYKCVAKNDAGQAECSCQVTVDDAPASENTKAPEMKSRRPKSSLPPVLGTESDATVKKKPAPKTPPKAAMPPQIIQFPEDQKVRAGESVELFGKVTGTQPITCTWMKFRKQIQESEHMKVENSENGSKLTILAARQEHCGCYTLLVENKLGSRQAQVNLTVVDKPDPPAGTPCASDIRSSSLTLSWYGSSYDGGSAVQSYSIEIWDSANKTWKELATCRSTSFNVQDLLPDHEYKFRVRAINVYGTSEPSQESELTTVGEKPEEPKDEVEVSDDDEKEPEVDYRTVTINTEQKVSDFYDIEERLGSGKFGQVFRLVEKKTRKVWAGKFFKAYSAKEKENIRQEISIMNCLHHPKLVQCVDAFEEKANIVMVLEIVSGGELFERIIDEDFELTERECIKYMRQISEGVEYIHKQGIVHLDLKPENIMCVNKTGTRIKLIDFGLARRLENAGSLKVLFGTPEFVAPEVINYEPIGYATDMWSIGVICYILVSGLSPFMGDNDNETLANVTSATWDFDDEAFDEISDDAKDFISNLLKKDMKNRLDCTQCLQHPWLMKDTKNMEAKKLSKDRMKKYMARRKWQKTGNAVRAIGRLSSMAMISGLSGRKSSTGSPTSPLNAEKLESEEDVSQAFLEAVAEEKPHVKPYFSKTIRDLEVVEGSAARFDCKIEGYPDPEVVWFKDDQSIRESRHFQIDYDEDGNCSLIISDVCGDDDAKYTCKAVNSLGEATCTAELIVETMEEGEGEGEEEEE
Chain of Mitogen-activated protein kinase kinase kinase 2 (Homo sapiens) (Q9Y2U5 whole entry, canonical isoform): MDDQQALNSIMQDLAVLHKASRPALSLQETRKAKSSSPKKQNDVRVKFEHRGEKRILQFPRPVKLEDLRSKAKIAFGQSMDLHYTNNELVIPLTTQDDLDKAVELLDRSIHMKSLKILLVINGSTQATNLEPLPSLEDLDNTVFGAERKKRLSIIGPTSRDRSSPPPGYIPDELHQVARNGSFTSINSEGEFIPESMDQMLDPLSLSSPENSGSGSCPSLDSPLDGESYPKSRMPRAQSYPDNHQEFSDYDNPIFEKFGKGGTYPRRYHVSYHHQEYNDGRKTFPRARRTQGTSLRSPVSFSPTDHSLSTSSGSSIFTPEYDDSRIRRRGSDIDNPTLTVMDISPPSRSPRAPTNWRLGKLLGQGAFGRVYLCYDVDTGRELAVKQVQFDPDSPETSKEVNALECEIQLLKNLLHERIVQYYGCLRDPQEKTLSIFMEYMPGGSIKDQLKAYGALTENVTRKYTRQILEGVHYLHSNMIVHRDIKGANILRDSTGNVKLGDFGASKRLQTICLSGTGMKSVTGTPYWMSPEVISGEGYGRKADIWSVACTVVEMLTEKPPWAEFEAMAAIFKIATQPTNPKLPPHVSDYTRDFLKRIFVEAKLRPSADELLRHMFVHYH
Chain of NUAK family SNF1-like kinase 1 (Homo sapiens) (O60285 whole entry, canonical isoform): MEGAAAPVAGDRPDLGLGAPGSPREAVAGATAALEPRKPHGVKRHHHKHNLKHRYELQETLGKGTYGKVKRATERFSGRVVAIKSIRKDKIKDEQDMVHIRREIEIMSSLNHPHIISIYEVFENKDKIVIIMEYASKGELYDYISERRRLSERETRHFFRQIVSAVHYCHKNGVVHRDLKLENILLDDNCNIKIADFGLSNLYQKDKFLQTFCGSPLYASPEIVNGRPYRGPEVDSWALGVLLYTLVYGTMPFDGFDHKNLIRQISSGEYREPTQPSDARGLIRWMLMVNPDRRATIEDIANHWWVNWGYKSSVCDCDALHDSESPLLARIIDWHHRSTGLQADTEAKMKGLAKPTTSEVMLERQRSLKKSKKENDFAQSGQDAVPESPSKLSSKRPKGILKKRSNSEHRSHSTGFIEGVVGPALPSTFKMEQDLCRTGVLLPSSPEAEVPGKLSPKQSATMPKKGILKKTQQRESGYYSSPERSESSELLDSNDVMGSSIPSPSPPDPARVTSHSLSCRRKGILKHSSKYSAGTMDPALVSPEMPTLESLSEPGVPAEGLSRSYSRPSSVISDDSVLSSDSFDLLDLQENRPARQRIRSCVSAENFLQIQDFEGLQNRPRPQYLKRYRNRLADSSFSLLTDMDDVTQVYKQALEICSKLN

COc1ccc2c(c1)O[C@@H](c1ccc(OC)c(OC)c1)C[C@H]2NC(=O)C1(c2ccc3c(c2)OC(F)(F)O3)CC1 [A-1596586]
residual activity [1]: 65%
residual activity [2]: 86%
residual activity [3]: 100%
% Inhibition of Control Specific Binding (Mean n=2) [4]: -18.2%
residual activity [5]: 97%
residual activity [6]: 100%
residual activity [7]: 85%
residual activity [8]: 100%
residual activity [9]: 82%
residual activity [10]: 86%
residual activity [11]: 77%
residual activity [12]: 84%
residual activity [13]: 100%
residual activity [14]: 80%
residual activity [15]: 100%
residual activity [16]: 100%
residual activity [17]: 71%
% Inhibition of Control Specific Binding (Mean n=2) [18]: 9.3%
residual activity [19]: 95%
residual activity [20]: 68%
inhibition [21]: 3.77%
residual activity [22]: 98%
% Inhibition of Control Specific Binding (Mean n=2) [23]: 6.7%
residual activity [24]: 96%
residual activity [25]: 96%
residual activity [26]: 75%
residual activity [27]: 100%
residual activity [28]: 100%
residual activity [29]: 100%
residual activity [30]: 83%
residual activity [31]: 65%
inhibition [32]: 34.1%
residual activity [33]: 97%
residual activity [34]: 85%
residual activity [35]: 89%
residual activity [36]: 100%
residual activity [37]: 93%
residual activity [38]: 80%
% Inhibition of Control Values (Mean n=2) [39]: 1.2%
residual activity [40]: 82%
residual activity [41]: 94%
residual activity [42]: 100%
residual activity [43]: 72%
% Inhibition of Control Specific Binding (Mean n=2) [44]: 29.3%
residual activity [45]: 81%

COc1ccc2c(c1)O[C@H](c1ccc(OC)c(OC)c1)C[C@@H]2NC(=O)C1(c2ccc3c(c2)OC(F)(F)O3)CC1 [A-1596584]
residual activity [1]: 100%
residual activity [2]: 91%
residual activity [3]: 100%
% Inhibition of Control Specific Binding (Mean n=2) [4]: -14.1%
residual activity [5]: 85%
residual activity [6]: 98%
residual activity [7]: 90%
residual activity [8]: 100%
residual activity [9]: 93%
residual activity [10]: 95%
residual activity [11]: 100%
residual activity [12]: 100%
residual activity [13]: 98%
residual activity [14]: 93%
residual activity [15]: 92%
residual activity [16]: 100%
residual activity [17]: 93%
% Inhibition of Control Specific Binding (Mean n=2) [18]: 13.1%
residual activity [19]: 93%
residual activity [20]: 92%
inhibition [21]: -7.53%
residual activity [22]: 100%
% Inhibition of Control Specific Binding (Mean n=2) [23]: 4.5%
residual activity [24]: 100%
residual activity [25]: 92%
residual activity [26]: 88%
residual activity [27]: 96%
residual activity [28]: 84%
residual activity [29]: 100%
residual activity [30]: 56%
residual activity [31]: 85%
inhibition [32]: 27.4%
residual activity [33]: 73%
residual activity [34]: 100%
residual activity [35]: 89%
residual activity [36]: 100%
residual activity [37]: 95%
residual activity [38]: 90%
% Inhibition of Control Values (Mean n=2) [39]: -2.1%
residual activity [40]: 95%
residual activity [41]: 100%
residual activity [42]: 84%
residual activity [43]: 84%
% Inhibition of Control Specific Binding (Mean n=2) [44]: 15.7%
residual activity [45]: 100%
